Measurements: publication PMC5045939, “Comparison of [^11C]TZ1964B and [^18F]MNI659 for PET imaging brain PDE10A in nonhuman primates” (Pharmacology Research & Perspectives, 2016)
Where “and” joins values, the source holds several entries; their conditions need not be identical. Identical values can stand only once. Like-named read-outs stand apart in the source and are kept apart here.

Tests used:
[1] = Log P measurement, 1-octanol/PBS pH 7.4; type: physicochemical; conditions: 1-octanol / 0.1 mol/L PBS pH 7.4, Log D7.4 taken as Log P
Method: Log P was measured according to the previous report (Li et al. 2013b), by adding different volumes of [^11C]TZ1964B or [^18F]MNI659 into a mixture of 1‐octanol (3 mL) and 0.1 mol/L phosphate‐buffered saline (PBS, pH 7.4, 3 mL). The mixture was vortexed and then centrifuged. Then, 2 mL organic layer was mixed with 1 mL 1‐octanol and 3 mL PBS buffer. The resulting mixture was vortexed and centrifuged again. Then 1 mL of the organic layer and 1 mL of the aqueous layer were separated and loaded in a gamma counter. The results were corrected for background radiation and physical decay. The partition coefficient Log D7.4, which equals Log P, was calculated as the decimal logarithm the ratio of cpm/mL of 1‐octanol to that of PBS.

PDE10A [2] = conditions: cited from earlier work
PDE10A [3] = conditions: cited from earlier work; remark: listed apart in the source
PDE10A [4] = assay: microPET imaging of NHP brain, reference-based kinetic analysis and AUC ratio; type: in vivo, cynomolgus monkey; conditions: for AUC ratio: 60-120 min; for AUC ratio / BPND-Logan / BPND-SRTM / AUC ratio (Stri/Cere) / R1 / k2: mean ± SD; for AUC ratio (Stri/Cere): NHP striatum to cerebellum, 60-120 min data; for time of peak (max SUV) striatal uptake: post injection, averaged SUV curves
Method: PET imaging studies were carried out on two adult male cynomolgus monkeys, weighing on 7–8 kg. Subject A underwent three sets of double scans, and Subject B underwent one set of double scans. Animals were prepared for microPET studies as previously reported (Liu et al. 2015). About 1.5–2.5% isoflurane inhalation anesthesia was maintained throughout the microPET imaging sessions. A 20‐gage plastic catheter was inserted into a limb vein to permit hydration and injection of the radiotracer. Arterial blood was collected through another 20‐gage plastic catheter which was placed into a femoral artery.
The imaging studies of [^11C]TZ1964B and [^18F]MNI659 in the NHP brain through double scans were done using a MicroPET Focus 220 scanner (Concorde/CTI/Siemens Microsystems, Knoxville, TN). For all the double scans, [^11C]TZ1964B studies were performed in the morning and [^18F]MNI659 in the afternoon, with an interval of ~3 h between the injection of each tracer. Prior to each PET acquisition, a 45‐min transmission scan for attenuation correction was performed following a 10 min transmission that was used to check the position of the brain within the scanner. Subsequently, 296–370 MBq of [^11C]TZ1964B or [^18F]MNI659 was intravenously injected, and a 120 min dynamic (3 × 1‐min frames, 4 × 2‐min frames, 3 × 3‐min frames, and 20 × 5‐min frames) PET scan was acquired.
The PET images were processed according to the previous report (Liu et al. 2015). Briefly, emission scans were corrected and reconstructed using filtered back projection as described previously (Miller et al. 1989). The final reconstructed resolution was 2.00 mm full width at half maximum (FWHM) for all three dimensions (axial) at center of the field of view. The actual field of view is 25.8 cm diameter and a 7.6 cm axial length. The reconstructed PET images was co‐registered with magnetization‐prepared rapid gradient echo (MP‐RAGE) MR images using Automated Image Registration (AIR) (Woods et al. 1993), and superimposed using Analyze 10.0 (AnalyzeDirect, Overland Park, KS) for quality control. For quantitative analyses, three‐dimensional regions of interest (ROIs) for cerebellum (Subject A: 583 voxels; Subject B: 750 voxels, the voxel size is 1.858 mm × 1.858 mm × 0.796 mm = 2.75 μL), striatum (A: 695 voxels; B: 1158 voxels), frontal cortex (A: 263 voxels; B: 225 voxels), midbrain (A: 64 voxels; B: 118 voxels), and hippocampus (A: 68 voxels; B: 64 voxels) were identified on MRI images and then transformed into PET images using the co‐registration transformation matrix. The ROIs for each animal were kept fixed for all subsequent studies once identified on a baseline scan. Time–activity curves (TACs) for each ROI were then obtained from the dynamic PET images. Standardized uptake value (SUV) of each tracer was calculated and standardized to the body weight and the injected dose of radioactivity.
Regional tracer uptake was quantified using two different reference‐based kinetic methods: Logan Reference (LoganREF) model (Logan et al. 1990, 1996; Innis et al. 2007; Liu et al. 2015) and simplified reference tissue model (SRTM) (Lammertsma and Hume 1996; Gunn et al. 1997; Innis et al. 2007; Liu et al. 2015). According to the LoganREF model, the distribution volume ratio (DVR) of each ROI was calculated using a MATLAB (Mathworks Inc., Natick, MA). The nondisplaceable binding potential (BPND) was then estimated: BPND = DVR‐1. BPND and R1, k 2 values were also obtained from the SRTM model (Lammertsma and Hume 1996; Watabe et al. 1996).
We also calculated the area under the time–activity curve (AUC) for the striatal to cerebellar ratio (AUC‐striatum/AUC‐cerebellum); this is a simple model and input function‐independent method to quantify an index of tracer accumulation in the brain (Muller Herde et al. 2015). […] Ideally, the AUC ratio equals the DVR determined by LoganREF model (Muller Herde et al. 2015). […]

[5] = radiometabolite analysis of NHP arterial plasma by HPLC; type: in vivo, cynomolgus monkey; conditions: 60 min post injection, n = 1
Method: The radiometabolite analysis was performed according to previous reports (Tu et al. 2011, 2015). Arterial blood samples (1.2–1.5 mL) were collected in a heparinized syringe at 2, 5, 15, 30, and 60 min (for [^11C]TZ1964B) or 5, 15 30, 60, 90, and 120 min (for [^18F]MNI659) postinjection of each radiotracer. Plasma (400 μL) was collected by centrifugation of the whole blood and mixed with ice‐cold methanol (0.92 mL) to deproteinate and extract the parent compound and radiolabeled metabolites. After centrifugation, the supernatant was mixed with water (1/1, v/v), and loaded onto a HPLC system with an Agilent SB C‐18 analytical HPLC column (250 mm × 4.6 mm, 5 μ) and a UV detector with 254 nm wavelength. The mobile phase was acetonitrile/0.1 mol/L ammonium formate buffer pH 4.5, (52/48, v/v) with a flow rate of 1.0 mL/min. The eluted fractions were collected for 16 min at 1 min intervals; the radioactivity of in each fraction was counted in a well counter, and results were corrected for background radiation and physical decay.

[6] = NHP frontal cortex to cerebellum
[7] = NHP midbrain to cerebellum, n = 4 scans in 2 NHPs
[8] = NHP striatum, LoganREF model, cerebellum reference, n = 4 scans in 2 NHPs
[9] = NHP striatum, SRTM, cerebellum reference, n = 4 scans in 2 NHPs
[10] = Figure 1, no reference given, read-out: Kd

logP [1] | time of peak (max SUV) striatal uptake (PDE10A [4]; NHP striatum) | percentage of parent compound in plasma [5] | SMILES | AUC ratio (PDE10A [4]; [6]) | BPND-Logan (PDE10A [4]; NHP frontal cortex) | BPND-SRTM (PDE10A [4]; NHP frontal cortex) | AUC ratio (PDE10A [4]; NHP hippocampus to cerebellum) | BPND-Logan (PDE10A [4]; NHP hippocampus) | BPND-SRTM (PDE10A [4]; NHP hippocampus) | AUC ratio (PDE10A [4]; [7]) | BPND-Logan (PDE10A [4]; NHP midbrain) | BPND-SRTM (PDE10A [4]; NHP midbrain) | AUC ratio (Stri/Cere) (PDE10A [4]; n = 4 scans in 2 NHPs) | BPND-Logan (PDE10A [4]; [8]) | BPND-SRTM (PDE10A [4]; [9]) | R1 (PDE10A [4]; NHP striatum, SRTM) | k2 (PDE10A [4]; NHP striatum, SRTM) [min⁻¹] | Kd (PDE10A [3]; [10]) [nM] | also measured
1.98 |  |  | COc1cc2ccccc2nc1COc1ccc(-c2nn(C)cc2-c2ccncc2)cc1 [TZ1964B] |  |  |  |  |  |  |  |  |  |  |  |  |  |  |  | IC50 (PDE10A [2]; in vitro binding potency, ref Li et al. 2013a, read-out: IC50 toward PDE10A): 0.4 ± 0.02 nM
1.98 |  |  | Cc1ccc2c(=O)n(-c3ccc(OCCF)cc3)c(CCN3C(=O)c4cccc(OC(C)C)c4C3=O)nc2c1 [MNI659] |  |  |  |  |  |  |  |  |  |  |  |  |  |  |  | Kd (PDE10A [3]; in vitro, given as Kd in Figure 1, ref Barret et al. 2014, read-out: binding potency for PDE10A): 0.097 nM
1.98 ± 0.09 | 40 to 60 min | ~ 70% | Cn1cc(-c2ccncc2)c(-c2ccc(OCc3nc4ccccc4cc3O[11CH3])cc2)n1 [[^11C]TZ1964B, 3‐[^11C]methoxy‐2‐((4‐(1‐methyl‐4‐(pyridin‐4‐yl)‐1H‐pyrazol‐3‐yl)phenoxy)methyl)‐quinoline] | 1.38 ± 0.13 | 0.15 ± 0.05 | 0.43 ± 0.28 | 1.35 ± 0.41 | 0.11 ± 0.25 | 0.32 ± 0.50 | 1.51 ± 0.47 | 0.26 ± 0.20 | 0.57 ± 0.30 | 5.87 and 5.87 ± 0.45 | 3.72 and 3.72 ± 0.62 | 4.39 and 4.39 ± 0.39 | 1.16 ± 0.17 | 0.13 ± 0.017 | 1.25 ± 0.2 | Ki (PDE10A [2]; Figure 1, no reference given): 0.4 ± 0.02 nM
1.98 ± 0.06 | about 10 min | ~ 50% | Cc1ccc2c(=O)n(-c3ccc(OCC[18F])cc3)c(CCN3C(=O)c4cccc(OC(C)C)c4C3=O)nc2c1 [[^18F]MNI659, 2‐(2‐(3‐(4‐(2‐[^18F]fluoroethoxy)phenyl)‐7‐methyl‐4‐oxo‐3,4‐dihydroquinazolin‐2‐yl)ethyl)‐4‐isopropoxyisoindoline‐1,3‐dione] | 1.37 ± 0.12 | 0.29 ± 0.10 | 0.29 ± 0.09 | 1.08 ± 0.23 | 0.11 ± 0.18 | 0.16 ± 0.20 | 2.59 ± 0.42 | 1.02 ± 0.14 | 1.11 ± 0.16 | 7.60 and 7.60 ± 2.68 | 5.08 and 5.08 ± 1.62 | 5.33 and 5.33 ± 1.36 | 1.20 ± 0.20 | 0.28 ± 0.13 | 0.097 | striatal K2 value relative to [^11C]TZ1964B (PDE10A [4]; NHP striatum, SRTM): twofold
